≈ marks a conversion by molar mass, not a printed value. One block for each compound: values may come before it.
Experiments:
p38 = test: Real time PCR of tumors; assay type: in vivo, athymic Nu/nu mice; conditions: normalised to β-actin
Procedure: (§1) Total RNA was extracted from tumors using RNeasy Kit and quantified by UV method using Nanodrop system. RNA was converted to complementary DNA using RT^2 First Strand Kit and RT^2 SYBR Green ROX qPCR Mastermix as per manufacturer's instructions. p38, Phospho-JNK, Bax, Bcl-2, cleaved caspase 8, cleaved caspase 3, survivin and BAD, mRNA expressions amplification was performed on an ABI 7300 RT-PCR (Applied Biosystems, Carlsbad, CA, USA) and data analysis done with a PCR Array Data Analysis Software (SA Biosciences, Valencia, CA, USA). The mRNA levels of p38, Phospho-JNK, Bax, Bcl-2, cleaved caspase 8, cleaved caspase 3, survivin and BAD and β-actin were calculated. The β-actin was a normalization control for gene expression.

cleaved caspase-3 = test: Real time PCR of tumors; assay type: in vivo, athymic Nu/nu mice; conditions: normalised to β-actin
Procedure: as §1

Bax = test: Real time PCR of tumors; assay type: in vivo, athymic Nu/nu mice; conditions: normalised to β-actin
Procedure: as §1

Bcl-2 = test: Real time PCR of tumors; assay type: in vivo, athymic Nu/nu mice; conditions: normalised to β-actin
Procedure: as §1

Phospho-JNK = test: Real time PCR of tumors; assay type: in vivo, athymic Nu/nu mice; conditions: normalised to β-actin
Procedure: as §1

cleaved caspase-8 = test: Real time PCR of tumors; assay type: in vivo, athymic Nu/nu mice; conditions: normalised to β-actin
Procedure: as §1

[1] = test system: A549 orthotopic lung tumors; test: A549 orthotopic lung cancer model; assay type: in vivo, athymic Nu/nu mice; conditions: 100 mg/kg orally daily for 3 weeks
Procedure: (§2) A549 cells were grown in F12K Medium containing 10% FBS and standard antibiotic mix at 5% CO2 and 37°C. For orthotopic lung tumor model, mice were anesthetized with Isoflurane and a 5 mm skin incision was made to the left chest, 5 mm below the scapula. Hamilton syringes (1 ml) with 28-gauge hypodermic needles were used to inject the cell inoculums through the sixth intercostal space into the left lung. The needle was quickly advanced to a depth of 3 mm and quickly removed after the injection of the A549 cells (2 million/mouse) suspended in 100 µL PBS (pH 7.4) into the lung parenchyma. For metastatic lung tumor models H1650 cells (2 million in 100 µL PBS) were intravenously administered to mice via tail vein. […] Only cell suspensions of >95% viability as determined by tryphan blue exclusion were used. Wounds from the incisions were closed with surgical skin clips. […] Drug treatment was started 2 weeks after the tumor cell implantation. BBR free drug or SD formulation was given orally at the dose of 100 mg/kg daily for 3 weeks. […] Body weights were monitored throughout the study. Animal survival rates were recorded during the study. The lung weights and tumor volumes were used for assessment of therapeutic activity of the treatments. After sacrificing the animals lung weights and tumor nodules were recorded in metastatic tumor models.

A549 cells = test: In vitro cytotoxicity, crystal violet staining; assay type: cell-based; conditions: Homo sapiens, BA, 72 h treatment
Procedure: (§3) NSCLC cells A549 and H1650 were plated in 96 well plates at 10,000 cells/well density. After 24 h, cells were treated with various concentrations of BBR and BA. DMSO (0.1%) treated cells were considered as control cells. After 72 h treatment, cells were fixed in 0.25% gultaraldehyde and stained with 0.05% crystal violet staining. Percent of cell viability or cell kill was calculated by considering DMSO treated control cells as 100% viable (zero % cell kill).

H1650 cells = test: In vitro cytotoxicity, crystal violet staining; assay type: cell-based; conditions: Homo sapiens, NCI-H1650; BA, 72 h treatment
Procedure: as §3

[2] = test system: H1650 metastatic lung tumors; test: H1650 metastatic lung cancer model; assay type: in vivo, athymic Nu/nu mice; conditions: 100 mg/kg orally daily for 3 weeks
Procedure: as §2

[3] = test system: TUNEL positive apoptotic cells; test: TUNEL assay on orthotopic lung tumor sections; assay type: in vivo, athymic Nu/nu mice
Procedure: Terminal deoxynucleotidyl transferase-mediated dUTP nick end labeling (TUNEL) assay was used to study the DNA fragmentation or apoptosis detection. TUNEL assay was performed on 4–5 µm thick sections as per the kit manual. Formalin-fixed tumor tissues were embedded in paraffin and sectioned ([…]). DeadEndTM Colorimetric Apoptosis Detection System (Promega, Madison, WI) allows the recognition of apoptotic nuclei in paraffin-embedded tissue sections fixed on slides according to the manufacturer's protocol. Briefly, the equilibration buffer was added to slides and incubated for 10 minutes followed by 10-minute incubation in […] proteinase K solution. The sections were washed in PBS and incubated with TdT enzyme at 37°C for 1 h in a humidified chamber for incorporation of biotinylated nucleotides at the 3-OH ends of DNA. The slides were incubated in horseradish peroxidase-labeled streptavidin to bind the biotinylated nucleotides followed by detection with stable chromagen DAB. The images on the slides were visualized with an Olympus BX40 light microscope equipped with a computer-controlled digital camera (DP71, Olympus Center Valley, PA, USA). Three slides per group were stained and apoptotic cells were identified by dark brown […] staining.

[4] = In vitro drug release of BA (USP type II paddle, HPLC); assay type: physicochemical; conditions: after 24 h; pH 5.8, 2.5% SLS, 37°C
Procedure: In vitro drug release study was conducted in PBS (pH 5.8) containing 1% volpo. Briefly, 50 mg of free drug or equivalent amount of SD form of BBR and BA were dispersed in 500 ml of release medium and the drug release profile was studied at pH 5.8. Release studies were performed according to the USP type II paddle method, at 37±0.5°C while stirring constantly at 50 rpm. Samples were withdrawn at different time points, centrifuged and drug content in the samples was analyzed by spectrometric method of analysis. The withdrawn samples were replaced by equal volumes of fresh medium maintained at the same temperature. Except replacing the 1% Volpo with 2.5% SLS, similar conditions were maintained for the in vitro drug release studies of BA in free drug and SD forms. The released BA concentrations were measured by established HPLC method.

[5] = Oral pharmacokinetic study; assay type: in vivo, Sprague Dawley rats
Procedure: Rats were fasted overnight before the start of the experiments and randomly divided into two experimental groups. […] Pharmacokinetic parameters were analyzed using non-compartmental techniques with WinNonlin® 5.0 software (Pharsight Corporation, Mountain View, CA, USA). SHAM analysis (i.e., Slope, Height, Area, and Moment) utilized plasma concentration-time data to estimate the area under the curve (AUC), apparent terminal elimination rate constant (λz), terminal elimination half-life (t1/2) and the area under the first moment of the plasma concentration–time curve (AUMC). The AUC was calculated for each rat using the piecewise log trapezoidal areas and extrapolated to infinity by dividing λz into the last measured plasma concentration (i.e. Clast/λz). From the values of AUC0_0-∞ and AUMC0-∞, the clearance (CL), mean residence time (MRT) and volume of distribution at tissue equilibrium (Vss) were calculated based on noncompartmental monoexponential assumptions as: CL = Dose/AUC, MRT≅AUMC/AUC and Vss = CL×MRT. The noncompartmental parameters were calculated for each rat before averaging dose groups. The pharmacokinetic parameters such as AUC, Cmax, t1/2, tmax, MRT, etc were compared between the free drug and SD formulations.

[6] = Sprague Dawley, rat, plasma, po, 100 mg/kg orally

Procedure for Caco-2 cell monolayers: Caco-2 cells (passage #29) were cultured at 37°C with culture medium replaced every 2 days in an atmosphere of 5% CO2 and 95% relative humidity. Cells were harvested upon reaching approximately 80-90% confluence with 0.25% trypsin–EDTA. Cells were grown on 1.12 cm^2 0.4 μm pore polycarbonate membrane inserts in 12 mm × 12 transwell permeable support plates (Corning, NY, USA). Caco-2 cells were seeded onto membranes at 50,000 cells/well. Individual wells received 1.5 mL of culture medium at the bottom and 0.5 mL of medium was added to the top of inserts which was changed on alternate days. Confluent monolayers were used for permeability studies at ~21 days post seeding. Transepithelial electrical resistance (TEER) of Caco-2 monolayers was measured prior to all experiments using the EVOM volt-ohm-meter (Millicell-ERS; Millipore, USA) to ensure monolayer integrity. The TEER (Ω·cm^2) values of the cell monolayers were determined by the resistance (Ω) × effective membrane area (cm^2). TEER values were measured across each cell monolayer prior to beginning the experimentation and at the last sample collection time point. Transport studies were initiated by removing culture medium from the apical (A) and basolateral (B) sides of the cell monolayer. […] The effective permeability (Peff) (cm/s) was determined using Eq. 1: […]

- drug release [4]: 11.3%
- CL ([5]; 100 mg/kg orally): 0.113 ± 0.0175 mL/min/kg
- AUMC (0-∞) ([5]; BA, 100 mg/kg orally): 116.04±23.13 µg.h^2/ml
- Vd ([5]; BA, 100 mg/kg orally): 0.12243 ± 0.01586 L/kg
- half-life ([5]; Sprague Dawley, rat, plasma, po, 100 mg/kg, read-out: t½ (converted)): 12.3 ± 3.68 h
- MRT [5, 6]: 15.1 ± 3.86 h
- Tmax [5, 6]: 2.36 ± 0.38 h
- AUC(0-inf) ([5]; Sprague Dawley, rat, plasma, po, BA, 100 mg/kg orally): 7260 ± 1650 ng·h/mL
- Cmax ([5]; Sprague Dawley, rat, po, BA, 100 mg/kg orally, plasma): 1160 ± 220 ng/mL
Compound: C=C(C)[C@@H]1CC[C@]2(C(=O)O)CC[C@]3(C)[C@H](CC[C@@H]4[C@@]5(C)CC[C@H](O)C(C)(C)[C@@H]5CC[C@]43C)[C@@H]12 [BA free drug, 3β, hydroxy-lup-20(29)-en-28-oic acid]
- p38 mRNA expression increased compared to control (p38): 1.20 fold
- cleaved caspase-3 mRNA expression higher than control (cleaved caspase-3): 1.30 fold
- Bax mRNA expression increased compared to control (Bax): 1.08 fold
- Bcl-2 mRNA expression down regulated compared to untreated control (Bcl-2): 1.36 fold
- Phospho-JNK mRNA expression increased compared to control (Phospho-JNK): 1.69 fold
- cleaved caspase-8 mRNA expression higher than control (cleaved caspase-8): 1.25 fold
- lung tumor weights [1]: 404.31 ± 29.50 mg
- reduction in tumor volumes compared to untreated control [1]: 27.72%
- reduction in tumor weights compared to untreated control tumors [1]: Approximately 31.11%
- IC50 (A549 cells): 8.92 ± 1.68 µg/mL (≈ 19.5 µM)
- IC50 (H1650 cells): 7.25 ± 1.54 µg/mL (≈ 15.9 µM)
- decrease of tumor nodules in the peripheral lobes [2]: 1.31 fold
- tumor weights reduced to, compared to untreated control [2]: 75.94%
- increase in TUNEL positive apoptotic cells compared to control tumors [3]: 8.14 fold

- mean permeability of paracellular control (Caco-2 cell monolayers): < 0.15 ×10⁻⁶ cm/s
Compound: Lucifer Yellow
